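In this assay, cells in 96-well plates receive the compound at five concentrations for 48 hours. Endpoints are linearly interpolated between the surrounding concentrations. The concentration for 50% growth inhibition is given as GI50. The concentration for full growth arrest is given as TGI.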
Columns and labels:
Assay in all cases: growth of human tumour cells (NCI), 48 h
[1] = test system: 786-0 renal
[2] = test system: A498 renal
[3] = test system: A549 NSCLC
[4] = test system: ACHN renal
[5] = test system: BT-549 breast
[6] = test system: CAKI-1 renal
[7] = test system: CCRF-CEM leukemia
[8] = test system: COLO 205 colon
[9] = test system: DU-145 prostate
[10] = test system: EKVX NSCLC
[11] = test system: HCC-2998 colon
[12] = test system: HCT-116 colon
[13] = test system: HCT-15 colon
[14] = test system: HL-60(TB) leukemia
[15] = test system: HOP-62 NSCLC
[16] = test system: HOP-92 NSCLC
[17] = test system: HS 578T breast
[18] = test system: HT29 colon
[19] = test system: IGROV1 ovarian
[20] = test system: K-562 leukemia
[21] = test system: KM12 colon
[22] = test system: LOX IMVI melanoma
[23] = test system: M14 melanoma
[24] = test system: MALME-3M melanoma
[25] = test system: MCF7 breast
[26] = test system: MDA-MB-231 breast
[27] = test system: MDA-MB-435
[28] = test system: MOLT-4 leukemia
[29] = test system: NCI-H226 lung
[30] = test system: NCI-H23 lung
[31] = test system: NCI-H460 lung
[32] = test system: NCI-H522 lung
[33] = test system: NCI/ADR-RES ovarian
[34] = test system: OVCAR-3 ovarian
[35] = test system: OVCAR-4 ovarian
[36] = test system: OVCAR-5 ovarian
[37] = test system: OVCAR-8 ovarian
[38] = test system: PC-3 prostate
[39] = test system: RPMI-8226 leukemia
[40] = test system: RXF 393 renal
[41] = test system: SF-268 CNS
[42] = test system: SF-295 CNS
[43] = test system: SF-539 CNS
[44] = test system: SK-MEL-2 melanoma
[45] = test system: SK-MEL-28 melanoma
[46] = test system: SK-MEL-5 melanoma
[47] = test system: SK-OV-3 ovarian
[48] = test system: SN12C renal
[49] = test system: SNB-19 CNS
[50] = test system: SNB-75 CNS
[51] = test system: SR leukemia
[52] = test system: SW-620 colon
[53] = test system: T-47D breast
[54] = test system: TK-10 renal
[55] = test system: U251 CNS
[56] = test system: UACC-257 melanoma
[57] = test system: UACC-62 melanoma
[58] = test system: UO-31 renal

Which GI50 [1] does the source give for `N#Cc1c(N)nc(N)nc1N[C@H](c1nc2c(F)ccc(Cl)c2c(=O)n1-c1cccnc1)C1CC1` here?
The GI50 was 0.363 µM.

And the TGI [1]?
The TGI was 14.5 µM.

And the GI50 [2]?
The GI50 was 0.249 µM.

What about the TGI [2] of the same compound?
The TGI was 1.55 µM.

What about the GI50 [3] of the same compound?
Its GI50 is 6.22 µM.

And the TGI [3]?
Its TGI is 21.2 µM.

And the GI50 [4]?
Its GI50 is 3.31 µM.

What about the TGI [4] of the same compound?
The TGI was > 100 µM.

What about the GI50 [5] of the same compound?
Its GI50 is 0.761 µM.

What about the TGI [5] of the same compound?
Its TGI is 17.3 µM.

What about the GI50 [6] of the same compound?
Its GI50 is 1.69 µM.

What about the TGI [6] of the same compound?
The TGI was 26.9 µM.

And the GI50 [7]?
The GI50 was 7.35 µM.

What about the TGI [7] of the same compound?
The TGI was 95.1 µM.

What about the GI50 [8] of the same compound?
Its GI50 is 8.74 µM.

And the TGI [8]?
The TGI was 25.8 µM.

And the GI50 [9]?
The GI50 was 11 µM.

What about the TGI [9] of the same compound?
Its TGI is > 100 µM.

What about the GI50 [10] of the same compound?
Its GI50 is 1.88 µM.

What about the TGI [10] of the same compound?
The TGI was 37.2 µM.

What about the GI50 [11] of the same compound?
The GI50 was 12.7 µM.

What about the TGI [11] of the same compound?
Its TGI is 28.4 µM.

What about the GI50 [12] of the same compound?
Its GI50 is 11.6 µM.

What about the TGI [12] of the same compound?
The TGI was 27.3 µM.

And the GI50 [13]?
The GI50 was 14.9 µM.

What about the TGI [13] of the same compound?
Its TGI is 56.7 µM.

What about the GI50 [14] of the same compound?
The GI50 was 2.28 µM.

And the TGI [14]?
The TGI was 82.8 µM.

What about the GI50 [15] of the same compound?
Its GI50 is 3.62 µM.

What about the TGI [15] of the same compound?
The TGI was > 100 µM.

And the GI50 [16]?
The GI50 was 0.549 µM.

What about the TGI [16] of the same compound?
The TGI was 7.59 µM.

And the GI50 [17]?
Its GI50 is 2.53 µM.

And the TGI [17]?
The TGI was 57.7 µM.

And the GI50 [18]?
Its GI50 is 4.53 µM.

And the TGI [18]?
Its TGI is 25.8 µM.

What about the GI50 [19] of the same compound?
Its GI50 is 1.22 µM.

What about the TGI [19] of the same compound?
Its TGI is 5.31 µM.

And the GI50 [20]?
Its GI50 is 31.8 µM.

And the TGI [20]?
Its TGI is > 100 µM.

And the GI50 [21]?
The GI50 was 14.4 µM.

And the TGI [21]?
Its TGI is 34.5 µM.

What about the GI50 [22] of the same compound?
The GI50 was 5.51 µM.

And the TGI [22]?
The TGI was 20.1 µM.

And the GI50 [23]?
Its GI50 is 13.6 µM.

And the TGI [23]?
The TGI was 41.8 µM.

And the GI50 [24]?
The GI50 was 10.9 µM.

And the TGI [24]?
The TGI was > 100 µM.

And the GI50 [25]?
The GI50 was 2.04 µM.

And the TGI [25]?
The TGI was > 100 µM.

And the GI50 [26]?
The GI50 was 11.8 µM.

What about the TGI [26] of the same compound?
Its TGI is 36.3 µM.

What about the GI50 [27] of the same compound?
The GI50 was 13 µM.

And the TGI [27]?
The TGI was 34.4 µM.

And the GI50 [28]?
Its GI50 is 3.33 µM.

What about the TGI [28] of the same compound?
The TGI was 28.8 µM.

And the GI50 [29]?
The GI50 was 15.5 µM.

What about the TGI [29] of the same compound?
Its TGI is > 100 µM.

And the GI50 [30]?
The GI50 was 21.8 µM.

And the TGI [30]?
The TGI was > 100 µM.

And the GI50 [31]?
Its GI50 is 4.95 µM.

What about the TGI [31] of the same compound?
The TGI was > 100 µM.

What about the GI50 [32] of the same compound?
The GI50 was 34.2 µM.

And the TGI [32]?
Its TGI is > 100 µM.

What about the GI50 [33] of the same compound?
The GI50 was 28.5 µM.

What about the TGI [33] of the same compound?
The TGI was > 100 µM.

And the GI50 [34]?
Its GI50 is 1.47 µM.

What about the TGI [34] of the same compound?
Its TGI is 16.3 µM.

What about the GI50 [35] of the same compound?
Its GI50 is 19.4 µM.

And the TGI [35]?
The TGI was 87.1 µM.

What about the GI50 [36] of the same compound?
The GI50 was 2.72 µM.

And the TGI [36]?
The TGI was 45.7 µM.

And the GI50 [37]?
Its GI50 is 15.9 µM.

What about the TGI [37] of the same compound?
The TGI was 44.3 µM.

And the GI50 [38]?
Its GI50 is 2.3 µM.

And the TGI [38]?
The TGI was 29.3 µM.

And the GI50 [39]?
The GI50 was 19 µM.

And the TGI [39]?
Its TGI is 46.4 µM.

And the GI50 [40]?
The GI50 was 0.32 µM.

And the TGI [40]?
The TGI was 3.46 µM.

What about the GI50 [41] of the same compound?
The GI50 was 12.3 µM.

What about the TGI [41] of the same compound?
The TGI was > 100 µM.

What about the GI50 [42] of the same compound?
Its GI50 is 1.18 µM.

What about the TGI [42] of the same compound?
Its TGI is 13.2 µM.

What about the GI50 [43] of the same compound?
The GI50 was 3.83 µM.

What about the TGI [43] of the same compound?
The TGI was 21 µM.

What about the GI50 [44] of the same compound?
The GI50 was 23.3 µM.

And the TGI [44]?
Its TGI is > 100 µM.

What about the GI50 [45] of the same compound?
Its GI50 is 7.23 µM.

And the TGI [45]?
Its TGI is > 100 µM.

And the GI50 [46]?
Its GI50 is 8.33 µM.

What about the TGI [46] of the same compound?
Its TGI is 21.9 µM.

And the GI50 [47]?
Its GI50 is 2.41 µM.

What about the TGI [47] of the same compound?
Its TGI is 11.4 µM.

What about the GI50 [48] of the same compound?
Its GI50 is 10.8 µM.

What about the TGI [48] of the same compound?
The TGI was > 100 µM.

And the GI50 [49]?
The GI50 was 13 µM.

And the TGI [49]?
Its TGI is 28.6 µM.

What about the GI50 [50] of the same compound?
The GI50 was 0.171 µM.

What about the TGI [50] of the same compound?
The TGI was 6.9 µM.

What about the GI50 [51] of the same compound?
Its GI50 is 13.4 µM.

What about the TGI [51] of the same compound?
The TGI was 52.5 µM.

And the GI50 [52]?
Its GI50 is 11.1 µM.

What about the TGI [52] of the same compound?
The TGI was > 100 µM.

What about the GI50 [53] of the same compound?
Its GI50 is 1.19 µM.

What about the TGI [53] of the same compound?
The TGI was 7.96 µM.

What about the GI50 [54] of the same compound?
The GI50 was 1.92 µM.

And the TGI [54]?
Its TGI is 15.6 µM.

And the GI50 [55]?
The GI50 was 14.7 µM.

And the TGI [55]?
The TGI was 69.2 µM.

What about the GI50 [56] of the same compound?
Its GI50 is 8.18 µM.

And the TGI [56]?
The TGI was > 100 µM.

And the GI50 [57]?
Its GI50 is 1.6 µM.

What about the TGI [57] of the same compound?
The TGI was > 100 µM.

And the GI50 [58]?
Its GI50 is 2.34 µM.

What about the TGI [58] of the same compound?
The TGI was 21.1 µM.

Reference: PubChem BioAssay (NCI)
